Measurements as given in patent US5876715A, “Antibodies that bind novel carbohydrate ligands (myelorollins) that cause E-selectin dependent cell rolling, and uses thereof” (The Biomembrane Institute, priority 1996, dated 1999).
“Also recorded” adds a separate entry of the source.

Molecular target: T1, E-selectin-Ig fusion protein (Homo sapiens, UniProt P16581)
T1 construct: Fc is only a tag
T1 sequence (P16581 22-610): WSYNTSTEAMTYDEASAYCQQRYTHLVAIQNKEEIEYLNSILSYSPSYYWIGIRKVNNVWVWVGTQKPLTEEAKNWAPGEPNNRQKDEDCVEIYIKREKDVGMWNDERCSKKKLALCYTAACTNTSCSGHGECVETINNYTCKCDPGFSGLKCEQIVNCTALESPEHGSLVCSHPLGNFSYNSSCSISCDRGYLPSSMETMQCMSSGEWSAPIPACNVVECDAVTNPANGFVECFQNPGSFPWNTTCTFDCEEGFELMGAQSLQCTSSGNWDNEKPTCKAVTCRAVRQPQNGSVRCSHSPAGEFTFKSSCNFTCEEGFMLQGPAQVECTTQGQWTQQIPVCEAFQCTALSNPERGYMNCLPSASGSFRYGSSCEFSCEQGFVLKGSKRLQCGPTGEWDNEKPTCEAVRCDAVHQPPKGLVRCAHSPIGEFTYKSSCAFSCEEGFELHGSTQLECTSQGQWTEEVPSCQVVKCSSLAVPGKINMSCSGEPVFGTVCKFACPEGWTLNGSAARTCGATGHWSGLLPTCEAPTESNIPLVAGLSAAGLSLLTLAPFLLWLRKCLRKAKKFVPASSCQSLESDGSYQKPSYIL
Assay: Direct binding of ganglioside-coated latex beads to E-selectin-Ig coated fluorescent beads by flow cytometry
Settings: ganglioside-coated latex beads mixed with E-selectin-Ig fluorescent beads
Procedure: 5×10^6 polystyrene latex beads (diameter […]) (IDC Spheres™; IDC, Portland, Oreg.) were washed with ethanol by centrifugation. 1 μg of GSL in 50 μL of ethanol was added to the washed beads and the mixture was evaporated under nitrogen stream. The beads were resuspended in 1% BSA in PBS(+) and washed twice by centrifugation. Washed beads were blocked with 3% BSA in PBS(+) at room temperature for 2 hr. After centrifugation, beads were resuspended in 1% BSA in PBS(+) with 0.1% azide and stored at 4° C. Yellow-green fluorescent sulfated latex beads (diameter 1 μm) (Molecular Probes, Inc., Portland, Oreg.) were coated with goat anti-human IgG (Fc-fragment specific) antibody (Jackson Immunoresearch Lab, West Grove, Pa.) according to manufacturer's protocol. After washing 3× with PBS, beads were blocked with 3% BSA in PBS at 4° C. for 2 hr. Blocked beads (about 5×10^8) were mixed with 1.5 mL of E- or P-selectin-Ig fusion protein containing culture supernatant (about 1 μg/mL fusion protein) from CHO transfectants (Handa et al., 1995 Int. J. Oncol. 6:773-781) with a blood mixer at 4° C. for 6-18 hr. This mixing procedure was repeated 3 times more using new culture supernatant containing the fusion protein. After washing with PBS, beads were incubated in 1 mL PBS containing 50 μg human IgG (Jackson Immunoresearch). For preparation of control beads, human IgG was used at 1 μg/mL, instead of fusion protein. The ganglioside-coated beads were mixed with the fluorescent beads at room temperature for various durations. The resulting suspension was subjected to flow cytometric analysis. Conditions of each assay are detailed below.
Adhesion under conditions of E- or P-selectin-binding to various gangliosides was assessed by a novel, sensitive method using E- or P-selectin-coated fluorescent beads (FIGS. 2 and 3). Adhesion was determined by aggregation of polystyrene beads coated with myelorollin, and selectin-coated fluorescent beads. Gangliosides were coated on non-fluorescent polystyrene beads and mixed with fluorescent beads coated with E- or P-selectin in the presence or absence of EDTA. Since aggregation occurs under brief, strong agitation, the process is neither "static" nor "dynamic" adhesion, in which myelorollin is presented as immovable solid phase. In this system, solid phases containing both myelorollin and selectin are in dynamic condition. Binding was determined by cytofluorometry. Ganglioside fractions used in this experiment were the same as described in Table 1. In addition: Sdiy^2, sialosyl Le^x -Le^x (VI^3 NeuAcV^3 FucIII^3 FucnLc6 Cer); SLe^x (IV^3 NeuAcIII^3 FucnLc4 Cer). These designated structures are based on ^1 H NMR, mass spectrometry. Binding index was defined as mean fluorescence intensity (MFI) of ganglioside fraction divided by MFI of sialylparagloboside (IV^3 NeuAcnLc4 Cer).
Referring to FIG. 2: open columns, E-selectin-IgG beads. Lighter shaded columns, E-selectin-IgG beads in the presence of 5 mM EDTA. Darker shaded columns, P-selectin-IgG beads. Solid columns, human IgG control beads. The binding of myelorollin to E-selectin beads was completely abolished in the presence of EDTA; myelorollin was unable to bind to P-selectin.
Binding index was defined as MFI of sample divided by MFI of sialylparagloboside as in FIG. 2. Open columns, E-selectin-IgG beads preincubated with control mouse IgG. Solid columns, E-selectin-IgG beads preincubated with mAb E1C. […]

| binding to E-selectin beads (binding index, MFI relative to sialylparagloboside) | binding to E-selectin beads (binding index, MFI relative to sialylparagloboside) (listed as Str. 1) | Substance | binding to E-selectin beads (binding index, MFI relative to sialylparagloboside) (listed as Str. 3) |
| --- | --- | --- | --- |
|  |  | VI^3 NeuAcV^3 FucIII^3 FucnLc6 Cer [SLe^x -Le^x, reference compound] | did show binding; also recorded: bound to E-selectin |
| no binding to E-selectin | no binding whatsoever | VI^3 NeuAcnLc6 Cer [Fr. 7] |  |
| weak adhesion |  | X^3 NeuAcVII^3 FucnLc10 Cer [Fr. 12-2] |  |

| Substance | binding to E-selectin beads (binding index, MFI relative to sialylparagloboside) | binding to E-selectin beads (binding index, MFI relative to sialylparagloboside) (listed as Str. 1) | binding to E-selectin beads (binding index, MFI relative to sialylparagloboside) (listed as Str. 3) |
| --- | --- | --- | --- |
| X^3 NeuAcVII^3 FucV^3 FucnLc10 Cer [Fr. 13-1] | clear binding; also recorded: bind strongly to E-selectin |  |  |
